The text below walks through data of patent US11161844B2, “Cyclic substituted imidazo[4,5-c]quinoline derivatives” (Pfizer Inc., priority 2017, dated 2021).

As usually defined, the IC50 is the concentration that inhibits the measured activity by half. A lower IC50 goes with higher potency.

One assay concerns the target mutant G2019S LRRK2 (Homo sapiens (Human), UniProt Q5S007, G2019S). Put plainly: LRRK2 kinase assay (Lantha Screen), mutant G2019S. It is filed as biochemical. The note with it: 100 nM LRRKtide, 1 mM ATP, 2 μg/mL enzyme; single determination unless otherwise indicated. As to the method:
(§1) LRRK2 kinase activity was measured using Lantha Screen technology from Invitrogen. GST-tagged truncated LRRK2 from Invitrogen (Cat #PV4874) was incubated with a fluorescein-labeled peptide substrate based upon ezrin/radixin/moesin (ERM), also known as LRRKtide (Invitrogen cat #PR8976A), in the presence of a dose response of compound. Upon completion, the assay was stopped and detected with a terbium labeled anti-phospho-ERM antibody (Invitrogen, cat #PR8975A). The assay was carried out under the following protocol: The compound dose response was prepared by diluting compound to a top concentration of 0.3 mM in 100% DMSO and serial diluted by half-log in DMSO to give an 11 point curve, 100× final assay concentration. Using Echo acoustic dispensing, 60 nL of compound was transferred to a low volume Corning 384-well assay plate. 3 μL of a working solution of substrate (200 nM LRRKtide, 2 mM ATP) prepared in assay buffer (50 mM HEPES, pH 7.5, 3 mM MgCl2, with 2 mM DTT and 0.01% Brij35 added fresh) was added to the 60 nL compound assay plate. The kinase reaction was started with 3 μL of a working solution of LRRK2 enzyme at a concentration of 4 μg/mL. The final reaction concentrations were 100 nM LRRKtide, 1 mM ATP, 2 μg/mL LRRK2 enzyme and a compound dose response with a top dose of 3 μM. The reaction was allowed to progress at room temperature for 30 minutes and then stopped with the addition of 6 μL of detection buffer (20 mM Tris pH 7.6, 0.01% NP-40, 6 mM EDTA with 2 nM terbium labeled anti-phospho-ERM). After an incubation of 1 hour at room temperature, the plate was read on an Envision with an excitation wavelength of 340 nm and a reading emission at both 520 nm and 495 nm. The ratio of the 520 nm and 495 nm emission was used to analyze the data. Inhibition of mutant G2019S LRRK2 (Invitrogen cat #PV4881) was measured in the exact same method. All final concentrations of substrate ATP and enzyme were the same.

Assay [1] addresses LRRK2, WT (GST-tagged truncated LRRK2) (Homo sapiens (Human), UniProt Q5S007). In words: LRRK2 kinase assay (Lantha Screen), wild type. The note with it: 100 nM LRRKtide, 1 mM ATP, 2 μg/mL enzyme; geometric mean of 2-4 determinations unless otherwise indicated. It is filed as biochemical. As to the method: as §1

Structures are written as SMILES.

Sequence of mutant G2019S LRRK2 (Q5S007 970-2527 G2019S): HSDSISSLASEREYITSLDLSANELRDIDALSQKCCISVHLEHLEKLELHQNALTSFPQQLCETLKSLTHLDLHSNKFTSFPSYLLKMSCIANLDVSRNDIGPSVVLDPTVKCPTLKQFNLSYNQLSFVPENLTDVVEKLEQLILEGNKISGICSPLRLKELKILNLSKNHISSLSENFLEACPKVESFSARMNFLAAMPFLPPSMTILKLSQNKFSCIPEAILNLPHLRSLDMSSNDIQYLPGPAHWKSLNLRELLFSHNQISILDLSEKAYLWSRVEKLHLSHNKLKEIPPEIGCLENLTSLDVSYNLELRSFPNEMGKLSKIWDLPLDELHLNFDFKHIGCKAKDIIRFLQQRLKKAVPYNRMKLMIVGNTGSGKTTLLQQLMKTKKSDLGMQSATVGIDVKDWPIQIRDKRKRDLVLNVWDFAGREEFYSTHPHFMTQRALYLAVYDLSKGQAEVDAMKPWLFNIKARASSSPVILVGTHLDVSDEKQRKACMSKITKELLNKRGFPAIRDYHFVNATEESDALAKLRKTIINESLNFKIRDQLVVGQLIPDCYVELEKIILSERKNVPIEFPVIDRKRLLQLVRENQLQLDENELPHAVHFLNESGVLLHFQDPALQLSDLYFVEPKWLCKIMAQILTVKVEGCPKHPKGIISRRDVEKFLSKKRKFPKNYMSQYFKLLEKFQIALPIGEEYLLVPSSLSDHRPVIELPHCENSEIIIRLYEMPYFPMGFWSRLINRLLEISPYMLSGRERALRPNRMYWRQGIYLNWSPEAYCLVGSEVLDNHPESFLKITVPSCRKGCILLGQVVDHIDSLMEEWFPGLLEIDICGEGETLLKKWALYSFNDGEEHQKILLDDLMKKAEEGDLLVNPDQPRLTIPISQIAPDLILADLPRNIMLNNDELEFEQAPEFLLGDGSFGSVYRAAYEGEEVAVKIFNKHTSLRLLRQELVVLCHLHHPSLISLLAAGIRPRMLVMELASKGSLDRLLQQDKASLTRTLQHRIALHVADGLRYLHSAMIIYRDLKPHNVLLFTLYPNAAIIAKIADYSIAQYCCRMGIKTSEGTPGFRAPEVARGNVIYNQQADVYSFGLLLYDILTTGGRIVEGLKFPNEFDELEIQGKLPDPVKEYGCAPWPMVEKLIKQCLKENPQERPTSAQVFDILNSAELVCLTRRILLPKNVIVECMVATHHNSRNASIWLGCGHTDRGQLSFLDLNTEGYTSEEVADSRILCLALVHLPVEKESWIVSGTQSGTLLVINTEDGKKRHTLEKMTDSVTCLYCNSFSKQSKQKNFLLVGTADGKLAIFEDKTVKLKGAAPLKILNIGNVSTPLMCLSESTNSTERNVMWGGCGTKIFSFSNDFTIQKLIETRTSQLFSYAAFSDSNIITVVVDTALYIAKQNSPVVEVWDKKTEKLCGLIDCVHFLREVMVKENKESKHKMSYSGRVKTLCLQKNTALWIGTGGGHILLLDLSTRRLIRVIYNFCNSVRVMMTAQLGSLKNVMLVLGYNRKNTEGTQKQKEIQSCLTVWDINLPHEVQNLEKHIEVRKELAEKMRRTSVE
Sequence of LRRK2, WT (GST-tagged truncated LRRK2) (Q5S007 970-2527): as the sequence (Q5S007 970-2527 G2019S) above, with S1050G counted along it

On to `CN1CC(n2c(C3CCC(F)C3)nc3cnc4ccc(C#N)cc4c32)C(F)(F)C1` (centres unmarked) [Example 57, 1-(4,4-difluoro-1-methylpyrrolidin-3-yl)-2-(3-fluorocyclopentyl)-1H-imidazo[4,5-c]quinoline-8-carbonitrile], for which the IC50 on mutant G2019S LRRK2 came to 5.94 nM; in assay [1], 4.54 nM.

For the compound `CN1CC(n2c(C3CCC(F)C3)nc3cnc4ccc(C#N)cc4c32)C(F)(F)C1` (centres unmarked) [Example 58, 1-(4,4-difluoro-1-methylpyrrolidin-3-yl)-2-(3-fluorocyclopentyl)-1H-imidazo[4,5-c]quinoline-8-carbonitrile], the figures for the concentration for half-maximal inhibition (IC50) (against mutant G2019S LRRK2; in assay [1]) were 21.2 nM and 12.2 nM, respectively.

Regarding `CN1CC(n2c(C3CCC(F)C3)nc3cnc4ccc(C#N)cc4c32)C(F)(F)C1` (centres unmarked) [Example 59, 1-(4,4-difluoro-1-methylpyrrolidin-3-yl)-2-(3-fluorocyclopentyl)-1H-imidazo[4,5-c]quinoline-8-carbonitrile], the IC50 came out at 141 nM at mutant G2019S LRRK2 and 30.5 nM in assay [1].

As for `CN1CC(n2c(C3CCC(F)C3)nc3cnc4ccc(C#N)cc4c32)C(F)(F)C1` (centres unmarked) [Example 60, 1-(4,4-difluoro-1-methylpyrrolidin-3-yl)-2-(3-fluorocyclopentyl)-1H-imidazo[4,5-c]quinoline-8-carbonitrile], the IC50 is 97.4 nM at mutant G2019S LRRK2 and 57.1 nM in assay [1].
